Results published in ChEMBL document CHEMBL1201862, “PubChem BioAssay data set” (2004).
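Cultured in 96-well plates, cells were exposed to test compound for 48 hours across five concentrations. GI50 marks 50% less growth.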 The source made the active and inactive calls. Cut-off read from the data, not from the text of the source: active = GI50 up to about 1.1 µM and inactive = higher.

Legend:
Assay in all cases: NCI tumour cell line growth inhibition, 48 h
CCRF-CEM = system: CCRF-CEM
OVCAR-3 = system: OVCAR-3
SN12C = system: SN12C
UO-31 = system: UO-31
IGROV-1 = system: IGROV-1
PC-3 = system: PC-3
DU-145 = system: DU-145
MCF7 = system: MCF7
A549 = system: A549
RXF 393 = system: RXF 393
NCI-H23 = system: NCI-H23
MOLT-4 = system: MOLT-4
OVCAR-4 = system: OVCAR-4
CAKI-1 = system: CAKI-1
NCI-H460 = system: NCI-H460
NCI-H522 = system: NCI-H522
TK-10 = system: TK-10
HCC 2998 = system: HCC 2998
HOP-92 = system: HOP-92
OVCAR-5 = system: OVCAR-5

Measured: GI50

c1ccc2c(c1)c1c(c3ccccc32)CN2CCCC2C1 (stereo not given)
inactive: CCRF-CEM 2.99 µM | OVCAR-3 3.26 µM | SN12C 2.7 µM | UO-31 2.77 µM | IGROV-1 2.7 µM | PC-3 3 µM | DU-145 4.17 µM | MCF7 2.44 µM | A549 2.96 µM | RXF 393 2.34 µM | NCI-H23 2.94 µM | MOLT-4 4.61 µM | OVCAR-4 3.3 µM | CAKI-1 4.07 µM | NCI-H460 3.03 µM | NCI-H522 2.57 µM | TK-10 10.4 µM | HCC 2998 4.22 µM | HOP-92 2.84 µM | OVCAR-5 3.94 µM

O=c1c2c3c(sc2nc2n1N=CN(c1ccc(F)cc1)C2)CCCC3
inactive: CCRF-CEM > 100 µM | OVCAR-3 > 100 µM | SN12C > 100 µM | UO-31 > 100 µM | IGROV-1 > 100 µM | PC-3 > 100 µM | DU-145 > 100 µM | MCF7 > 100 µM | A549 > 100 µM | RXF 393 > 100 µM | NCI-H23 > 100 µM | MOLT-4 > 100 µM | OVCAR-4 > 100 µM | CAKI-1 > 100 µM | NCI-H460 > 100 µM | NCI-H522 > 100 µM | TK-10 > 100 µM | HCC 2998 > 100 µM | HOP-92 > 100 µM | OVCAR-5 > 100 µM

Cc1cc(C)nc(NC(=O)c2ccc(Br)s2)c1
inactive: CCRF-CEM 3.37 µM | OVCAR-3 > 100 µM | SN12C > 100 µM | UO-31 25.6 µM | IGROV-1 > 100 µM | PC-3 > 100 µM | DU-145 > 100 µM | MCF7 28 µM | A549 48.4 µM | RXF 393 > 100 µM | NCI-H23 77.6 µM | MOLT-4 > 100 µM | OVCAR-4 > 100 µM | CAKI-1 > 100 µM | NCI-H460 > 100 µM | NCI-H522 > 100 µM | TK-10 > 100 µM | HCC 2998 > 100 µM | HOP-92 > 100 µM | OVCAR-5 17.7 µM

COc1ccc(C(=O)/C=C/c2ccc(OCC(=N)N)cc2)cc1
inactive: CCRF-CEM 4.06 µM | OVCAR-3 14.4 µM | SN12C 13.5 µM | UO-31 19.8 µM | IGROV-1 18.2 µM | PC-3 14.7 µM | DU-145 12.8 µM | MCF7 13.2 µM | A549 17.7 µM | RXF 393 14.7 µM | NCI-H23 18.7 µM | MOLT-4 3.58 µM | OVCAR-4 14.7 µM | CAKI-1 > 10 µM | NCI-H460 > 10 µM | NCI-H522 > 10 µM | TK-10 21.4 µM | HCC 2998 16.6 µM | HOP-92 15.2 µM | OVCAR-5 31.7 µM
